{
  "source": "paper PMC2797363",
  "about": "“Discovery of Novel Proteasome Inhibitors Using a High-Content Cell-Based Screening System” (PLoS ONE, 2009)",
  "molecular_target": "T1, 26S proteasome (chymotryptic activity, LLVY-AMC; β5 subunit) (Oryctolagus cuniculus, UniProt G1T4Q9)",
  "T1 construct": "gene PSMB5; purified 26S proteasomes from rabbit muscle; with other subunits of the 26S proteasome",
  "T1 sequence (G1T4Q9 60-263)": "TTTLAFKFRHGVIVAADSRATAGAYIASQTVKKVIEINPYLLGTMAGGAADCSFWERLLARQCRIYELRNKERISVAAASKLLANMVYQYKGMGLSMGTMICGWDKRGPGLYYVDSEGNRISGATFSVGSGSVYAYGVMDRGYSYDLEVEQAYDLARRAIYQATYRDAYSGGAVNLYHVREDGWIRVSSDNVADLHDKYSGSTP",
  "assay": "Suc-LLVY-AMC fluorogenic hydrolysis by purified 26S proteasome, 30 μM compound",
  "type": "biochemical",
  "data": [
    {"smiles": "Cn1c(=S)c2[nH]c(SCCN3C(=O)c4ccccc4C3=O)nc2n(C)c1=O", "note": "[NSC99671, 2-[2-[(1,3-dimethyl-2-oxo-6-sulfanylidene-7H-purin-8-yl)sulfanyl]ethyl]isoindole-1,3-dione]", "values": [
      {"measurement": "Suc-LLVY-AMC fluorogenic hydrolysis by purified 26S proteasome, 30 μM compound", "result": "NSC99671 displayed a moderate inhibitory effect"}
    ]}
  ]
}
